Experimental data from patent publication US10654867B2 (Genentech, Inc., priority 2016, dated 2020).

Target: T1, estrogen receptor alpha (ESR1) in MCF7 breast cancer cells (Homo sapiens, UniProt P03372)
T1 sequence (P03372 1-595): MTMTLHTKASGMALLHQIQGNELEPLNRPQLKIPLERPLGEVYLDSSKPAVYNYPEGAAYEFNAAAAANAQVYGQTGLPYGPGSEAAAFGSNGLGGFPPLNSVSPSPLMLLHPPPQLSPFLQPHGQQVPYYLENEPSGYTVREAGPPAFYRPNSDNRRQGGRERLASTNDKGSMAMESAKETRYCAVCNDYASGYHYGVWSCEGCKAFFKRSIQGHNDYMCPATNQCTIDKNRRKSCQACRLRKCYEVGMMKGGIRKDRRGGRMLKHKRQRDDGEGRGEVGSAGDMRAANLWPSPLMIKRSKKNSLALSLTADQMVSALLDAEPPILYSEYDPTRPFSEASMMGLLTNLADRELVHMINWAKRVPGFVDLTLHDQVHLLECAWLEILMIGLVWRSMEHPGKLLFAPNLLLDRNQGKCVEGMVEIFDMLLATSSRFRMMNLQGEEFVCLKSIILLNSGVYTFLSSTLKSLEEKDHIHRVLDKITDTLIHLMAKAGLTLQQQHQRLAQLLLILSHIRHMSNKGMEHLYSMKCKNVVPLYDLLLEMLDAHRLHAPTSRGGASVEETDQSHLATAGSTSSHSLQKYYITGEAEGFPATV
Experiment: Breast Cancer Cell ERa High Content Fluorescence Imaging Degradation Assay (ER-alpha MCF7 HCS)
Type: cell-based
Set-up: endogenous in cells; host or cells: MCF7 breast cancer cells; key to ERalpha (WT) MCF7HCS (Sinf): % change in ERα level; DMSO = 0%, fulvestrant = 100% change
Details: 4 hours, plateau of the maximal effect; for ER-alpha MCF7HCS Sinf: DMSO and fulvestrant define 0% and 100% change in ESR1, Table 1a; for ERalpha (WT) MCF7HCS (Sinf): DMSO and fulvestrant define 0% and 100% change in ESR1, Table 1b
Method: All of the exemplary Formula I, II, and III compounds in Tables 1a and 1b were made and characterized by LCMS [M+H]^+ (liquid chromatography mass spectroscopy) with detection of parent ion. All of the exemplary Formula I, II, and III compounds in Tables 1a and 1b were tested for binding to ERa (Estrogen Receptor alpha) and biological activity according to the assays, protocols, and procedures of Examples 901-907. ER-alpha MCF7 HCS Sinf (%) values in Tables 1a and 1b were measured by the Breast Cancer Cell ERa High Content Fluorescence Imaging Degradation Assay of Example 901. ER-alpha MCF7 HCS EC50 (μM) values in Tables 1a and 1b were measured by the in vitro cell proliferation assays described in Examples 902 and 903. The rat uterine wet weight assays of Examples 906 and 907 allow rapid determination of compound antagonist activity in an ER responsive tissue (immature rat uterus) while competing against the native ER ligand estradiol, i.e. antagonist mode (Ashby, J.; et al (1997) Regulatory toxicology and pharmacology: RTP, 25 (3):226-31). Exemplary Formula I, II, and III compounds in Tables 1a and 1b have the following structures, corresponding names (ChemBioDraw, Version 12.0.2, CambridgeSoft Corp., Cambridge Mass.), and biological activity. Where more than one name is associated with a Formula I, II, and III compound or intermediate, the chemical structure shall define the compound.
MCF7 breast cancer cells were seeded on day 1 at a density of 10,000 cells per well in 384 well poly-lysine coated tissue culture plate (Greiner # T-3101-4), in 50 μL/well RPMI (phenol red free), 10% FBS (Charcoal stripped), containing L-glutamine. On day 2, compounds were prepared at 2 compound source concentrations: 100 μM and 1 μM (ultimately to give 2 overlapping titration curves), in a Labcyte low dead volume plate, 10 μL/well, and 10 μL of DMSO in designated wells for backfill, and 5 μM Fulvestrant (control compound) in designated wells. Compounds and controls were dispensed using a Labcyte Echo acoustic dispenser to dispense compounds with a predefined serial dilution (1.8×, 10 point, in duplicate) and appropriate backfill and control compounds (final total volume transferred was 417.5 nL and compound dispense volume ranges from 2.5 nL to 417.5 nL; 0.84% DMSO (v/v) final), ultimately producing a concentration range from 0.05 nM to 835 nM. Cell plates were incubated at 37° C., for 4 hours. Fixation and permeabilization were carried out using a Biotek EL406 plate washer and dispenser as follows. Cells were fixed by addition of 15 μL of 16% paraformaldehyde (Electron Microscopy Sciences #15710-S) directly to the 50 μL cell culture medium in each well using the peristaltic pump 5 μL cassette on a Biotek EL406 (final concentration of formaldehyde was 3.7% w/v). Samples were incubated 30 minutes. Well contents was aspirated and 50 μL/well of Phosphate Buffered Saline (PBS) containing 0.5% w/v bovine serum albumen, 0.5% v/v Triton X-100 (Antibody Dilution Buffer) was added to each well. Samples were incubated for 30 minutes. Well contents were aspirated and washed 3 times with 100 μL/well of PBS. Immunofluorescence staining of estrogen receptor alpha (ESR1) was carried out using a Biotek EL406 plate washer and dispenser as follows. The well supernatant was aspirated from the wells and 25 μL/well of anti-ESR1 mAb (F10) (Santa Cruz sc-8002) diluted 1:1000 in Antibody Dilution Buffer was dispensed. Samples were incubated for 2 hours at room temperature. Samples were washed 4 times with 100 μL/well of PBS. 25 uL (microliters)/well of secondary antibody solution (Alexafluor 488 conjugate anti-mouse IgG (LifeTechnologies # A21202) diluted 1:1000 and Hoechst 33342 1 μg/ml diluted in Antibody Dilution Buffer) were dispensed into each well. Samples were incubated for 2 hours at room temperature. Samples were washed 3 times with 100 μL/well of PBS using a Biotek EL406. Quantitative fluorescence imaging of ESR1 was carried out using a Cellomics Arrayscan V (Thermo). […]

Structure (SMILES)	ER-alpha MCF7HCS Sinf [%]	ERalpha (WT) MCF7HCS (Sinf)
CC1Cc2c(c3ccccc3n2C)C(c2c(F)cc(OCCN3CC(CF)C3)cc2F)N1CC(C)(C)F (racemic) [Example 139, (±)-1-(2-6-difluoro-4-(2-(3-(fluoromethyl)azetidin-1-yl)ethoxy)phenyl)-2-(2-fluoro-2-methylpropyl)-3,5-dimethyl-2,3,4,5-tetrahydro-1H-pyrido[4,3-b] indole]	−88.6	
CC(C)C(=O)N1[C@H](c2c(F)cc(OCCN3CC(CF)C3)cc2F)c2sc3ccccc3c2C[C@H]1C (relative stereo) [Example 102, 1-((1,3-trans)-1-(2,6-difluoro-4-(2-(3-(fluoromethyl)azetidin-1-yl)ethoxy)phenyl)-3-methyl-3,4-dihydrobenzo[4,5]thieno[2,3-c]pyridin-2(1H)-yl)-2-methylpropan-1-one]	−64.5	
C[C@@H]1Cc2[nH]c3ccccc3c2[C@@H](c2c(F)cc(OC3CN(CCCF)C3)cc2F)N1CC(F)(F)CO (relative stereo) [Example 144, trans-3-(1-(2,6-difluoro-4-(1-(3-fluoropropyl)azetidin-3-yloxy)phenyl)-3-methyl-3,4-dihydro-1H-pyrido[4,3-b]indol-2(5H)-yl)-2,2-difluoropropan-1-ol]	−98.8	
CC(C)C(=O)N1[C@H](c2c(F)cc(OCCN3CC(CF)C3)cc2F)c2oc3ccccc3c2C[C@H]1C (single isomer, unassigned) [Example 101]	−94.5	
C[C@H]1CN(CC(C)(C)F)[C@H](c2c(F)cc(OCCN3CC(CF)C3)cc2F)c2[nH]c3ccccc3c21 (single isomer, unassigned) [Example 107]	−97.8	
C[C@@H]1CN(CC(C)(C)F)[C@H](c2c(F)cc(OCCN3CC(CF)C3)cc2F)c2[nH]c3ccccc3c21 (single isomer, unassigned) [Example 108]	−92.4	
C[C@@H]1CN(CC(C)(C)F)[C@@H](c2c(F)cc(OCCN3CC(CF)C3)cc2F)c2[nH]c3ccccc3c21 (single isomer, unassigned) [Example 109]	−74.6	
C[C@@H]1Cc2c([nH]c3ncccc23)[C@@H](c2c(F)cc(OC3CN(CCCF)C3)cc2F)N1CC(C)(C)F (single isomer, unassigned) [Example 120]	−88.0	
C[C@@H]1Cc2sc3ccccc3c2[C@H](c2ccc(OCCN3CC(CF)C3)cc2)N1CC(C)(C)F (single isomer, unassigned) [Example 130]	−76.8	
C[C@H]1Cc2[nH]c3ccccc3c2[C@H](c2c(F)cc(OCCN3CC(CF)C3)cc2F)N1CC(C)(C)F (single isomer, unassigned) [Example 136]	−51	
C[C@@H]1Cc2[nH]c3ccccc3c2[C@@H](c2c(F)cc(OCCN3CC(CF)C3)cc2F)N1CC(F)(F)CO (single isomer, unassigned) [Example 147]	−95.7	
C[C@H]1Cc2[nH]c3ccccc3c2[C@H](c2c(F)cc(OCCN3CC(CF)C3)cc2F)N1CC(F)(F)CO (single isomer, unassigned) [Example 148]	−79	
C[C@H]1Cc2[nH]c3ccccc3c2[C@H](c2c(F)cc(NC3CN(CCCF)C3)cc2F)N1CC(F)(F)CO (single isomer, unassigned) [Example 154]	−30	
C[C@@H]1Cc2[nH]c3ccccc3c2[C@@H](c2c(F)cc(NC3CN(CCCF)C3)cc2F)N1CC(F)(F)CO (single isomer, unassigned) [Example 155]	−97.4	
C[C@@H]1Cc2c(oc3ccccc23)[C@@H](c2c(F)cc(NC3CN(CCCF)C3)cc2F)N1CC(F)(F)CO (single isomer, unassigned) [Example 157]	−102	
C[C@H]1Cc2c(oc3ccccc23)[C@H](c2c(F)cc(NC3CN(CCCF)C3)cc2F)N1CC(F)(F)CO (single isomer, unassigned) [Example 158]	−88.8	
C[C@@H]1Cc2c(sc3ccccc23)[C@@H](c2c(F)cc(NC3CN(CCCF)C3)cc2F)N1CC(F)(F)CO (single isomer, unassigned) [Example 159]	−102	
C[C@H]1Cc2c(sc3ccccc23)[C@H](c2c(F)cc(NC3CN(CCCF)C3)cc2F)N1CC(F)(F)CO (single isomer, unassigned) [Example 160]	−96.9	
C[C@@H]1Cn2c(cc3ccccc32)[C@@H](c2c(F)cc([C@@H](O)C3CN(CCCF)C3)cc2F)N1CC(F)(F)CO (single isomer, unassigned) [Example 163]		−100
C[C@@H]1Cn2c(cc3ccccc32)[C@@H](c2c(F)cc([C@H](O)C3CN(CCCF)C3)cc2F)N1CC(F)(F)CO (single isomer, unassigned) [Example 164]		−98.6
C[C@@H]1Cc2oc3ccccc3c2[C@@H](c2c(F)cc(OCCN3CC(CF)C3)cc2F)N1CC(C)(C)F (stereo in doubt) [Example 167, 1-(2,6-difluoro-4-(2-(3-(fluoromethyl)azetidin-1-yl)ethoxy)phenyl)-2-(2-fluoro-2-methylpropyl)-3-methyl-1,2,3,4-tetrahydrobenzofuro [3,2-c]pyridine]		−96
C[C@H]1Cc2oc3ccccc3c2[C@H](c2c(F)cc(OCCN3CC(CF)C3)cc2F)N1CC(C)(C)F (stereo in doubt) [Example 168, 1-(2,6-difluoro-4-(2-(3-(fluoromethyl)azetidin-1-yl)ethoxy)phenyl)-2-(2-fluoro-2-methylpropyl)-3-methyl-1,2,3,4-tetrahydrobenzofuro [3,2-c]pyridine]		−97
CC(C)(F)CN1CCCc2c([nH]c3ccccc23)[C@H]1c1c(F)cc(OCCN2CC(CF)C2)cc1F [Example 103, (R)-1-(2,6-difluoro-4-(2-(3-(fluoromethyl)azetidin-1-yl)ethoxy)phenyl)-2-(2-fluoro-2-methylpropyl)-1,2,3,4,5,10-hexahydroazepino[3,4-b]indole]	−96.7	
